Data taken from patent publication US9833497B2, “Human originated EGF domain proteins and use of the same” (CHENGDU SOURCEBIO LIMITED-LIABILITY COMPANY, priority 2013, dated 2017).

Experiments:
Type in all cases: cell-based
E. coli DH5α = assay: Antibacterial activity: MIC and growth curve against E. coli DH5α in 96-well plate; conditions: minimal inhibitory concentration against E. coli DH5α; 96-well plate, 5×10^5 CFU/mL, 37° C., judged after 8 h
Outline: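 Log-phase bacteria (OD600 ~0.5) resuspended in LB at 5×10^5 CFU/mL, exposed to recombinant protein at 50, 25, 12.5 μg/mL final in triplicate, 37 °C shaking at 175 rpm. OD600 read every 30 min; MIC is lowest concentration showing no growth.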

E. coli BL21 = assay: MIC against Gram-negative bacteria: E. coli BL21; conditions: 5×10^5 CFU/mL
Outline: (§1)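 Two-fold serial dilutions of each purified human EGF domain protein, three replicate wells per level, were combined with bacteria at a final 5×10^5 CFU/mL in LB. Cultures were shaken at 175 rpm, 37° C. The MIC was taken as the minimum concentration preventing growth.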

Pseudomonas aeruginosa = assay: MIC against Gram-negative bacteria: Pseudomonas aeruginosa; conditions: 5×10^5 CFU/mL
Outline: as §1

Klebsiella pneumonia = assay: MIC against Gram-negative bacteria: Klebsiella pneumonia; conditions: 5×10^5 CFU/mL
Outline: as §1

Enterobacter cloacae = assay: MIC against Gram-negative bacteria: Enterobacter cloacae; conditions: 5×10^5 CFU/mL
Outline: as §1

Aeromonas hydrophila = assay: MIC against Gram-negative bacteria: Aeromonas hydrophila; conditions: 5×10^5 CFU/mL
Outline: as §1

Citrobacter diversus = assay: MIC against Gram-negative bacteria: Citrobacter diversus; conditions: 5×10^5 CFU/mL
Outline: as §1

Moraxella catarrhalis = assay: MIC against Gram-negative bacteria: Moraxella catarrhalis; conditions: 5×10^5 CFU/mL
Outline: as §1

Proteus mirabilis = assay: MIC against Gram-negative bacteria: Proteus mirabilis; conditions: 5×10^5 CFU/mL
Outline: as §1

Proteus vulgaris = assay: MIC against Gram-negative bacteria: Proteus vulgaris; conditions: 5×10^5 CFU/mL
Outline: as §1

Serratia marcescens = assay: MIC against Gram-negative bacteria: Serratia marcescens; conditions: 5×10^5 CFU/mL
Outline: as §1

[1] = 10 h cultivation at 37° C., two-fold serial dilution

Substance | MIC (E. coli DH5α) [µg/mL] | MIC (μg/mL) E. coli BL21 (E. coli BL21; 10 h cultivation at 37° C.) [µg/mL] | MIC (μg/mL) P. aeruginosa (Pseudomonas aeruginosa; 10 h cultivation at 37° C.) [µg/mL] | MIC (μg/mL) K. pneumonia (Klebsiella pneumonia; 10 h cultivation at 37° C.) [µg/mL] | MIC (μg/mL) E. cloacae (Enterobacter cloacae; 10 h cultivation at 37° C.) [µg/mL] | MIC (μg/mL) A. hydrophila (Aeromonas hydrophila; 10 h cultivation at 37° C.) [µg/mL] | MIC (μg/mL) C. diversus (Citrobacter diversus; 10 h cultivation at 37° C.) [µg/mL] | MIC (μg/mL) M. catarrhalis (Moraxella catarrhalis; 10 h cultivation at 37° C.) [µg/mL] | MIC (μg/mL) P. mirabilis (Proteus mirabilis; 10 h cultivation at 37° C.) [µg/mL] | MIC (μg/mL) P. vulgaris (Proteus vulgaris; 10 h cultivation at 37° C.) [µg/mL] | MIC (μg/mL) S. marcescens (Serratia marcescens; 10 h cultivation at 37° C.) [µg/mL] | also measured
PRT882 (SAKQCDSYPCKNNAVCKDGWNRFICDCTGTGYWGRTCE; listed as Homo sapiens) | 25 | 12.5 | 25 | 12.5 | 25 | 100 | 50 | 12.5 | 50 | 12.5 | 50 | 
PRT1070 (RPGTCNLQCFNGGSCFLNARRQPKCRCQPRYTGDKCE; listed as Homo sapiens) | 25 |  |  |  |  |  |  |  |  |  |  | MIC E. coli BL21 (E. coli BL21; [1]): 12.5 µg/mL; MIC P. aeruginosa (Pseudomonas aeruginosa; [1]): 25 µg/mL; MIC K. pneumonia (Klebsiella pneumonia; [1]): 12.5 µg/mL; MIC E. cloacae (Enterobacter cloacae; [1]): 25 µg/mL; MIC A. hydrophila (Aeromonas hydrophila; [1]): 12.5 µg/mL; MIC C. diversus (Citrobacter diversus; [1]): 12.5 µg/mL; MIC M. catarrhalis (Moraxella catarrhalis; [1]): 12.5 µg/mL; MIC P. mirabilis (Proteus mirabilis; [1]): 12.5 µg/mL; MIC P. vulgaris (Proteus vulgaris; [1]): 12.5 µg/mL; MIC S. marcescens (Serratia marcescens; [1]): 12.5 µg/mL
PRT252 (TAACTNTSCSGHGECVETINNYTCKCDPGFSGLKCE; listed as Homo sapiens) | 25 | 12.5 | 25 | 12.5 | 25 | 12.5 | 25 | 12.5 | 25 | 12.5 | 25 | 
PRT513 (CECDPYGSLPVPCDPVTGFCTCRPGATGRKCDGCKHWHAREGWECVF; listed as Homo sapiens) | 50 |  |  |  |  |  |  |  |  |  |  | MIC against E. coli BL21 (E. coli BL21; 96-well plate, 37° C., 10 h): 12.5 µg/mL; MIC against P. aeruginosa (Pseudomonas aeruginosa; 96-well plate, 37° C., 10 h): 50 µg/mL; MIC against K. pneumonia (Klebsiella pneumonia; 96-well plate, 37° C., 10 h): 12.5 µg/mL; MIC against E. cloacae (Enterobacter cloacae; 96-well plate, 37° C., 10 h): 25 µg/mL; MIC against A. hydrophila (Aeromonas hydrophila; 96-well plate, 37° C., 10 h): 50 µg/mL; MIC against C. diversus (Citrobacter diversus; 96-well plate, 37° C., 10 h): 25 µg/mL; MIC against M. catarrhalis (Moraxella catarrhalis; 96-well plate, 37° C., 10 h): 12.5 µg/mL; MIC against P. mirabilis (Proteus mirabilis; 96-well plate, 37° C., 10 h): 50 µg/mL; MIC against P. vulgaris (Proteus vulgaris; 96-well plate, 37° C., 10 h): 12.5 µg/mL; MIC against S. marcescens (Serratia marcescens; 96-well plate, 37° C., 10 h): 12.5 µg/mL
PRT755 (AVDYCASENHGCEHECVNADGSYLCQCHEGFALNPDKKTCT; listed as Homo sapiens) | 12.5 | 50 | 12.5 | 50 | 12.5 | 50 | 12.5 | 50 | 12.5 | 12.5 | 25 | 
PRT723 (KERTCAENICEQNCTQLNEGGFICSCTAGFETNVFDRTSCL; listed as Homo sapiens) | 25 |  |  |  |  |  |  |  |  |  |  | MIC E. coli BL21 (E. coli BL21; 96-well plate, 37° C., 10 h): 50 µg/mL; MIC P. aeruginosa (Pseudomonas aeruginosa; 96-well plate, 37° C., 10 h): 100 µg/mL; MIC K. pneumonia (Klebsiella pneumonia; 96-well plate, 37° C., 10 h): 100 µg/mL; MIC E. cloacae (Enterobacter cloacae; 96-well plate, 37° C., 10 h): 50 µg/mL; MIC A. hydrophila (Aeromonas hydrophila; 96-well plate, 37° C., 10 h): 12.5 µg/mL; MIC C. diversus (Citrobacter diversus; 96-well plate, 37° C., 10 h): 25 µg/mL; MIC M. catarrhalis (Moraxella catarrhalis; 96-well plate, 37° C., 10 h): 12.5 µg/mL; MIC P. mirabilis (Proteus mirabilis; 96-well plate, 37° C., 10 h): 25 µg/mL; MIC P. vulgaris (Proteus vulgaris; 96-well plate, 37° C., 10 h): 25 µg/mL; MIC S. marcescens (Serratia marcescens; 96-well plate, 37° C., 10 h): 12.5 µg/mL
